{"source": "patent US12667585B2", "about": "“Immunotherapeutic nanoparticles and methods relating thereto” (Wake Forest University Health Sciences, priority 2019, dated 2026)", "system": "BMDM, BMDC or AM cells", "test": "Real time RT-PCR of type I IFN and other inflammatory response genes", "assay_type": "cell-based, C57BL/6 mouse", "conditions": "100 nM cGAMP, 4 h", "experimental": "Real time RT-PCR of type I IFN and other inflammatory response genes induced by NP-cGAMP. BMDM, BMDC or AM cells […] were seeded into 6-well plates and cultured for 24 h. The cells were then incubated at 37° C. with free cGAMP or NP-cGAMP (100 nM cGAMP) suspended in complete culture medium for 4 h. All cellular RNA was collected using TRIzol reagent (Thermo Fisher). One microgram of total RNA was transcribed into cDNA using High-Capacity cDNA Reverse Transcription Kit (Thermo Fisher), and real-time quantitative PCR (qPCR) was performed using PowerUp SYBR Green Master Mix (Thermo Fisher) with primers for amplification of Gapdh, Ifnb1, Cxcl9, Cxcl10, Tnf, Il6, Il12b, Il1b, Ifna1, Il10, and Tgfb1 genes. mRNA levels were normalized against the housekeeping gene GAPDH."}
{"compound": "Nc1nc2c(ncn2[C@@H]2O[C@@H]3COP(=O)(O)O[C@H]4[C@@H](O)[C@H](n5cnc6c(N)ncnc65)O[C@@H]4COP(=O)(O)O[C@@H]2[C@@H]3O)c(=O)[nH]1", "note": "[free cGAMP, cyclic [G(2′,5′)pA(3′,5′)p]]", "values": [{"measurement": "expression of Ifnb1, Ifna1 and other proinflammatory genes (Tnf, Il1b, Il6, Il12b, Cxcl9,10)", "value": "only a modest increase"}]}
